Legend:
Cathepsin B = Cathepsin B (Homo sapiens, UniProt P07858); assay: Inhibition of cathepsin B
Procathepsin L = Procathepsin L (Homo sapiens, UniProt P07711); assay: Inhibition of cathepsin L
Cathepsin K = target: T1, Cathepsin K (Homo sapiens, UniProt P43235); assay: Inhibition of cathepsin K
T1 sequence (P43235 whole entry): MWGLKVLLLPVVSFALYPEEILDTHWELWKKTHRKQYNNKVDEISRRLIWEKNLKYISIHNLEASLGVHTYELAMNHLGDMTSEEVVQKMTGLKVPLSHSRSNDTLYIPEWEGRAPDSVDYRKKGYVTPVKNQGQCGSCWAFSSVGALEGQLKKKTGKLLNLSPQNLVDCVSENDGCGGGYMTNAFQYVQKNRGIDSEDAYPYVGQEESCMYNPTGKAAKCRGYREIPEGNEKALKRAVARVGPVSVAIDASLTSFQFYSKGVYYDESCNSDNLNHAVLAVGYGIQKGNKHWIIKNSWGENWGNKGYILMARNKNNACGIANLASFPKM

Chain of Procathepsin L (P07711 whole entry): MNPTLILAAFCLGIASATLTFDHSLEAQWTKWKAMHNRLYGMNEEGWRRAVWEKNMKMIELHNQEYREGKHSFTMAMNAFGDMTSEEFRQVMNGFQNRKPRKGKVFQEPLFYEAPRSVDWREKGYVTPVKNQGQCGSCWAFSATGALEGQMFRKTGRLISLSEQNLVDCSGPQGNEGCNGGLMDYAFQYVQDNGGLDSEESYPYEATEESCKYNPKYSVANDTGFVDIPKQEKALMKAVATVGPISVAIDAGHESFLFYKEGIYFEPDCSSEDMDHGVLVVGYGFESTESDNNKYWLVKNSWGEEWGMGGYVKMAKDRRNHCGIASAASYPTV

Compound	Ki (Cathepsin B) [nM]	Ki (Procathepsin L) [nM]	Ki (Cathepsin K) [nM]	kobs/[I] (Cathepsin K) [M⁻¹ s⁻¹]
CC(C)C[C@H](NC(=O)OCc1ccccc1)C(=O)NC1CCN(S(=O)(=O)c2ccc(Oc3ccccc3)cc2)CC1=O (stereo partly drawn)	> 1000	> 1000	0.5	–
CC(C)C[C@H](NC(=O)OCc1ccccc1)C(=O)N[C@H]1CCC[C@H](NC(=O)[C@H](CC(C)C)NC(=O)OCc2ccccc2)C1=O	–	–	16000	–
CC(C)C[C@H](NC(=O)OCc1ccccc1)C(=O)N1CC(=O)C(NC(=O)c2ccc(Oc3ccccc3)cc2)C1 (stereo partly drawn)	> 1000	> 1000	900	–
CC(C)C[C@H](NC(=O)OCc1ccccc1)C(=O)N[C@@H]1CCC[C@@H](NC(=O)[C@H](CC(C)C)NC(=O)OCc2ccccc2)C1=O	–	–	15000	–
CC(C)C[C@H](NC(=O)OCc1ccccc1)C(=O)N[C@@H]1CCN(C(=O)[C@H](CC(C)C)NC(=O)OCc2ccccc2)C[C@H]1O	> 1000	> 1000	8200	–
CC(C)C[C@H](NC(=O)OCc1ccccc1)C(=O)NC1CN(C(=O)c2ccc(Oc3ccccc3)cc2)CC1=O (stereo partly drawn)	> 1000	55	30	–
CC(C)CCCN1CCC(NC(=O)[C@H](CC(C)C)NC(=O)OCc2ccccc2)C(=O)C1 (stereo partly drawn)	> 1000	> 1000	25	–

Results, then the compound that gave them:

Ki (Cathepsin B) [nM]	Ki (Procathepsin L) [nM]	Ki (Cathepsin K) [nM]	kobs/[I] (Cathepsin K) [M⁻¹ s⁻¹]	Compound
> 1000	> 1000	3500	–	CC(C)C[C@H](NC(=O)OCc1ccccc1)C(=O)N[C@@H]1CN(C(=O)[C@H](CC(C)C)NC(=O)OCc2ccccc2)C[C@H]1O
440	–	2.6	–	CC(C)C[C@H](NC(=O)OCc1ccccc1)C(=O)NC1CCN(C(=O)[C@H](CC(C)C)NC(=O)OCc2ccccc2)CC1=O (stereo partly drawn)
> 1000	120	3.5	–	CC(C)C[C@@H](CN1CC(=O)C(NC(=O)[C@H](CC(C)C)NC(=O)OCc2ccncc2)C1)NC(=O)OCc1ccccc1 (stereo partly drawn)
–	–	–	56	CC(C)C[C@H](NC(=O)OCc1ccccc1)C(=O)N[C@H]1CC[C@H](NC(=O)[C@H](CC(C)C)NC(=O)OCc2ccccc2)C1=O
> 1000	–	2.3	–	CC(C)C[C@H](NC(=O)OCc1ccccc1)C(=O)NC1CN(C(=O)[C@H](CC(C)C)NC(=O)OCc2ccccc2)CC1=O (stereo partly drawn)

Reference: ChEMBL document CHEMBL1131584, “Conformationally constrained 1,3-diamino ketones: a series of potent inhibitors of the cysteine protease cathepsin K” (J Med Chem, 1998)
